Data on four molecules can be found in PMC10004634 (PLOS ONE, 2023).

Where two headings read alike, the source gives them in different places.

What all share (experiment): biochemical
What all share (set-up): KINOMEscan scanMAX competition binding, DNA-tagged kinases, qPCR read-out, percent control at 300 nM
(In qPCR the cycle at which signal appears reflects the starting amount.)

The target of test [1] is ANKK1 (Homo sapiens, UniProt Q8NFD2).
The target of test [2] is CIT (Homo sapiens, UniProt O14578).
Test [3] addresses CLK1 (Homo sapiens, UniProt P49759).
Test [4] addresses CSNK1D (Homo sapiens, UniProt P48730).
Test [5] deals with DDR1 (Homo sapiens, UniProt Q08345).
Test [6] has as its target FES (Homo sapiens, UniProt P07332).
Test [7] concerns the target T1, LOK (Homo sapiens, UniProt O94804).
T1 construct: gene STK10

The target in test [8] is MET (Homo sapiens, UniProt P08581).
MET, sequence (P08581 whole entry): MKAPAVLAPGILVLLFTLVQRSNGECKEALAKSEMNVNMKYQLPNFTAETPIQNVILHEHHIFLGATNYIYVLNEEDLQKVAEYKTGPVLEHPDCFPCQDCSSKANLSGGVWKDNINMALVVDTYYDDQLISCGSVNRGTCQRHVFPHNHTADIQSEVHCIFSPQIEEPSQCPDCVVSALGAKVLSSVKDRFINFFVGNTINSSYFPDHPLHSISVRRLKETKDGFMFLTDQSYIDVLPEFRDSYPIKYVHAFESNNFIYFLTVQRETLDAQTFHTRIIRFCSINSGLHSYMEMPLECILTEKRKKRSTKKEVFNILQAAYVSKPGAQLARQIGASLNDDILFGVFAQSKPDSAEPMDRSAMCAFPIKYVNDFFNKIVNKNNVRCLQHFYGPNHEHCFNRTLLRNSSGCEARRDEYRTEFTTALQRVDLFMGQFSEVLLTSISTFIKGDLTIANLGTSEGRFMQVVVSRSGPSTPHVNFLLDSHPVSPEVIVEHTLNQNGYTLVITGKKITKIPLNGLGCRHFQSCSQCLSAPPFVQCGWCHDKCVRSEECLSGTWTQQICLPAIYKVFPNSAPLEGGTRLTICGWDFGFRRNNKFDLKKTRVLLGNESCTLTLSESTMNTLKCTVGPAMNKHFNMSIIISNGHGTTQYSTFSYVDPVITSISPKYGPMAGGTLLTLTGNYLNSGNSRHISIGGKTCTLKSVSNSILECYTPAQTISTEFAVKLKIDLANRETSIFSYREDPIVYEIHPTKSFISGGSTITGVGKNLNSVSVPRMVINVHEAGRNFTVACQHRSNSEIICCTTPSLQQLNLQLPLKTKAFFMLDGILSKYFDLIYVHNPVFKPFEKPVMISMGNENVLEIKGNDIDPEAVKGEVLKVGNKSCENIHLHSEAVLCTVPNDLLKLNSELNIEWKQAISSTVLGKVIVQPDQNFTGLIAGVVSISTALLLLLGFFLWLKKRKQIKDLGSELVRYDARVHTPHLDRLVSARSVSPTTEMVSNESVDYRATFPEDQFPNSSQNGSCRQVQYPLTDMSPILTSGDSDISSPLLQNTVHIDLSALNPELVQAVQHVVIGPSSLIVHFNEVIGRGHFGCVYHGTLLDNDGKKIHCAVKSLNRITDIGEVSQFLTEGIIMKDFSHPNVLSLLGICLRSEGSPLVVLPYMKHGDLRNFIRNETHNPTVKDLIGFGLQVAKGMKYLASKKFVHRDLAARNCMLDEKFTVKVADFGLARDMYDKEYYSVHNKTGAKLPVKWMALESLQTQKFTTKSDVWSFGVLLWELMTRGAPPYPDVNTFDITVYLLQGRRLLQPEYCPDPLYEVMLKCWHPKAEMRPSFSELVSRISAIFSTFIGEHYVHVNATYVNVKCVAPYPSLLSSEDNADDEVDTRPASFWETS
The target in test [9] is T2, MLK1 (Homo sapiens, UniProt P80192).
T2 construct: gene MAP3K9

Test [10] addresses PIK3CD (Homo sapiens, UniProt O00329).
Test [11] has as its target T3, RSK4(Kin.Dom.1-N-terminal) (Homo sapiens, UniProt Q9UK32).
T3 construct: gene RPS6KA6; Kin.Dom.1-N-terminal

Test [12] deals with SGK3 (Homo sapiens, UniProt Q96BR1).
The target of test [13] is SRC (Homo sapiens, UniProt P12931).
Test [14] concerns the target STK36 (Homo sapiens, UniProt Q9NRP7).
For test [15], the target named is TSSK1B (Homo sapiens, UniProt Q9BXA7).
Test [16] addresses ULK3 (Homo sapiens, UniProt Q6PHR2).
In test [17] the target is ERBB3 (Homo sapiens, UniProt P21860).
Test [18] addresses FGFR1 (Homo sapiens, UniProt P11362).
Test [19] addresses T4, MST4 (Homo sapiens, UniProt Q9P289).
T4 construct: gene STK26

The target in test [20] is CLK4 (Homo sapiens, UniProt Q9HAZ1).
In test [21] the target is DMPK (Homo sapiens, UniProt Q09013).
Test [22] concerns the target MAK (Homo sapiens, UniProt P20794).
Test [23] addresses T5, RSK1(Kin.Dom.2-C-terminal) (Homo sapiens, UniProt Q15418).
T5 construct: gene RPS6KA1; Kin.Dom.2-C-terminal

Where [24] appears, read: read-out: Percent control / Acalabrutinib.
[25] abbreviates: read-out: Percent control / Ibrutinib.
[26] abbreviates: read-out: Percent control / Tirabrutinib.
Where [27] appears, read: read-out: Percent control / Zanubrutinib.

CSNK1D, sequence (P48730 whole entry): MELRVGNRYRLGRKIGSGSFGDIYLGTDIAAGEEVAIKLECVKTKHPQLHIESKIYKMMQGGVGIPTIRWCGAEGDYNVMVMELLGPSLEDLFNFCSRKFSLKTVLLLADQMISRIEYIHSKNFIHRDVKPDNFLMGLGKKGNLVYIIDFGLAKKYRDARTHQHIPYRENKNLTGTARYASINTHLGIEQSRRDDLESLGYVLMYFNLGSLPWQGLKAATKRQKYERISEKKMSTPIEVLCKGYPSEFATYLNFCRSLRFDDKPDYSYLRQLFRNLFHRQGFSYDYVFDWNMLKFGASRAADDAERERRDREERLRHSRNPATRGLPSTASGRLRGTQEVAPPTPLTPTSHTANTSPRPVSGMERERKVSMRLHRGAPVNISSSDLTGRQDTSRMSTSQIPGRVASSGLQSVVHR
MAK, sequence (P20794 whole entry): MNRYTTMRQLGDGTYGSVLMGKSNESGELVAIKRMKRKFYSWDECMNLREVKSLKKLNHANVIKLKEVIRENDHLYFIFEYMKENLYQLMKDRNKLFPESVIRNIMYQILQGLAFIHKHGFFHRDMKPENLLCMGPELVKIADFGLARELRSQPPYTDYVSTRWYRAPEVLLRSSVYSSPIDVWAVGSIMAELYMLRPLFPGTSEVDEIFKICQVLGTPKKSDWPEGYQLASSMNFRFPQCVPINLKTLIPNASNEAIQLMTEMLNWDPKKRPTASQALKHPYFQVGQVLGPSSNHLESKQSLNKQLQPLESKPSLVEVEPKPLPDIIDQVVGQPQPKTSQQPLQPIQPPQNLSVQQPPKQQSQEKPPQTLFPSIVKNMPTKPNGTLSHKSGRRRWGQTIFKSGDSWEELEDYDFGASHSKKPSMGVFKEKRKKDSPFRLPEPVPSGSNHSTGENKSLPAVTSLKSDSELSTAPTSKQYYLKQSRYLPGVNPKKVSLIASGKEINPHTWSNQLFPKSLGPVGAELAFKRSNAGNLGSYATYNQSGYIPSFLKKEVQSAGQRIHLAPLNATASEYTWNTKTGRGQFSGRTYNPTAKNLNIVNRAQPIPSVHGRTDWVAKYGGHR
T5 sequence (Q15418 whole entry): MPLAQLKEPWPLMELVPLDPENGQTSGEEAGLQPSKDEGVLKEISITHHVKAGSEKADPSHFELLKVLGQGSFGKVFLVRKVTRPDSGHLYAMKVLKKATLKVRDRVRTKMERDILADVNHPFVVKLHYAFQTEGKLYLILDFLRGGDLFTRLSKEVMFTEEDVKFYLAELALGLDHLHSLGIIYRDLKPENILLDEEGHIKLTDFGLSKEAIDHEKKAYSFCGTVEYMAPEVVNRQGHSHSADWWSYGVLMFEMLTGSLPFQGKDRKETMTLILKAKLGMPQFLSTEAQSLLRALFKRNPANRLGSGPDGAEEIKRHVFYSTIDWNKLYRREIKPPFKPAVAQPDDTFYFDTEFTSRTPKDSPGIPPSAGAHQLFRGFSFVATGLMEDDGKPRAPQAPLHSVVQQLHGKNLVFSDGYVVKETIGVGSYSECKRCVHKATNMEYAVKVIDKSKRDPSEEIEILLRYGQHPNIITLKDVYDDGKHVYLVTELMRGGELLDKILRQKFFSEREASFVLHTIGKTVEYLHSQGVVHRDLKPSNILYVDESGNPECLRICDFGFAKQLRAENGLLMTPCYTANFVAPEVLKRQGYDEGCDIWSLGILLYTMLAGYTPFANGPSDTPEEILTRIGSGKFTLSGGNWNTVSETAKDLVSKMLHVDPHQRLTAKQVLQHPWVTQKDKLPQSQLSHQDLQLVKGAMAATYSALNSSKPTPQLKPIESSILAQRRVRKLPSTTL
FGFR1, sequence (P11362 whole entry): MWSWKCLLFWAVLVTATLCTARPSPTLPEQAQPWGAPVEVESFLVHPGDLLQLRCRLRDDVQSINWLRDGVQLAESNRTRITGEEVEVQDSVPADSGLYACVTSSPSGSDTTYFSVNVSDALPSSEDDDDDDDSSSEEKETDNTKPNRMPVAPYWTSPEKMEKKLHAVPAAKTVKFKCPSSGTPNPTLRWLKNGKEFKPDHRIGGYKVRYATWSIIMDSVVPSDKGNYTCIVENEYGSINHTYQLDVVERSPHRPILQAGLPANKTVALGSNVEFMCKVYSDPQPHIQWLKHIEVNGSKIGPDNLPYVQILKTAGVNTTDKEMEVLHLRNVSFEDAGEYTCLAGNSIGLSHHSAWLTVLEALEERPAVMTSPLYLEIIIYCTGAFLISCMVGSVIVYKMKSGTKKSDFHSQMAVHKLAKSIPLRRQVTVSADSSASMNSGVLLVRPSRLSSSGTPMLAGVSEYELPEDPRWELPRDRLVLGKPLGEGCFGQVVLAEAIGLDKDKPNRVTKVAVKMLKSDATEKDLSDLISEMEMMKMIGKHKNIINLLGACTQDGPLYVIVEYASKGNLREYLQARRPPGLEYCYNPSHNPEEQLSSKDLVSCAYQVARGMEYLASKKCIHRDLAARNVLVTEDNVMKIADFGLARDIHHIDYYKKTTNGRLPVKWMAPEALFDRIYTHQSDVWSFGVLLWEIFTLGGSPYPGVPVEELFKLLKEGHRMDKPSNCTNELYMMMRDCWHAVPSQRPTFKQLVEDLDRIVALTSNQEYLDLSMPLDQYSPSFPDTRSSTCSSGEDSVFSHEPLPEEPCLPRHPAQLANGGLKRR
FES, sequence (P07332 whole entry): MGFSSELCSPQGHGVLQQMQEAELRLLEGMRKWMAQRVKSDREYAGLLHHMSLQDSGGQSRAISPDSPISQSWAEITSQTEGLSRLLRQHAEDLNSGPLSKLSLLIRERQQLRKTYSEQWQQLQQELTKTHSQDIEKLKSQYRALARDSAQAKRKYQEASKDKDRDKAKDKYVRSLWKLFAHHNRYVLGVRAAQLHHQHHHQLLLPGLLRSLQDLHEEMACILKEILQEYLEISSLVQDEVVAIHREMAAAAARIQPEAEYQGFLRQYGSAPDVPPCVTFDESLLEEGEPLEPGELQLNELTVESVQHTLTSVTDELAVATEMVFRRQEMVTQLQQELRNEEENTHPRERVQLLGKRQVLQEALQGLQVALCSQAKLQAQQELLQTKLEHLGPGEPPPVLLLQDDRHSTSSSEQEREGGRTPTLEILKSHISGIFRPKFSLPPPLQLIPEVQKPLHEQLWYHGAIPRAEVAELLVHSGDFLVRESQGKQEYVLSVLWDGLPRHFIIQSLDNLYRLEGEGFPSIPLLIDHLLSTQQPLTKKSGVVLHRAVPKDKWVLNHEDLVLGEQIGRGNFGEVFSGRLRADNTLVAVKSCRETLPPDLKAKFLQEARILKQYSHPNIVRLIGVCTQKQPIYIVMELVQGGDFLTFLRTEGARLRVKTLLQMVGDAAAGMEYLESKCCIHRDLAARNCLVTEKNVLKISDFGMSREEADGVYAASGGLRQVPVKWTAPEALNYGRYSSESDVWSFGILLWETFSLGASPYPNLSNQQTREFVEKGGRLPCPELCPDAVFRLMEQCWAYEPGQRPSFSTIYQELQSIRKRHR

For the molecule `CC#CC(=O)N1CCC[C@H]1c1nc(-c2ccc(C(=O)Nc3ccccn3)cc2)c2c(N)nccn12` [Acalabrutinib], the remaining binding at 0.3 µM in test [1] (setting [24]) was 58%; in test [2] (setting [24]), 81%; in test [3] (setting [24]) it was 92%; in [4] (setting [24]), 85%; in [5] (setting [24]), 86%; in [6] (setting [24]) it was 90%. The remaining binding at 0.3 µM was determined as 99% in test [7] (setting [24]); 90% in test [8] (setting [24]); 92% in [9] (setting [24]); 88% in test [10] (setting [24]); 82% in test [11] (setting [24]); 94% in test [12] (setting [24]). The remaining binding at 0.3 µM came to 99% in test [13] (setting [24]), 90% in test [14] (setting [24]), 93% in test [15] (setting [24]) and 91% in test [16] (setting [24]).
Turning to `C=CC(=O)N1CCC[C@@H](n2nc(-c3ccc(Oc4ccccc4)cc3)c3c(N)ncnc32)C1` [Ibrutinib], the remaining binding at 0.3 µM in [17] (setting [25]) was 1.2%; in [18] (setting [25]) it was 66%; in test [19] (setting [25]), 89%; in [14] (setting [25]), 71%.
On to `CC#CC(=O)N1CC[C@@H](n2c(=O)n(-c3ccc(Oc4ccccc4)cc3)c3c(N)ncnc32)C1` [Tirabrutinib], for which the remaining binding at 0.3 µM worked out at 82% in test [20] (setting [26]); 93% in test [21] (setting [26]); 94% in test [22] (setting [26]); 88% in test [23] (setting [26]); 95% in [13] (setting [26]).
Turning to `C=CC(=O)N1CCC([C@@H]2CCNc3c(C(N)=O)c(-c4ccc(Oc5ccccc5)cc4)nn32)CC1` [Zanubrutinib], the remaining binding at 0.3 µM in [1] (setting [27]) was found to be 100%; in [2] (setting [27]) it was 100%; in [3] (setting [27]), 90%; in test [20] (setting [27]), 99%; in test [4] (setting [27]), 100%; in test [5] (setting [27]), 100%. The remaining binding at 0.3 µM turned out to be 90% in [21] (setting [27]); 87% in [17] (setting [27]); 100% in test [6] (setting [27]); 68% in test [18] (setting [27]); 93% in [7] (setting [27]); 100% in test [22] (setting [27]). The remaining binding at 0.3 µM in test [8] (setting [27]) amounted to 96%; in [9] (setting [27]), 84%; in [19] (setting [27]), 63%; in test [10] (setting [27]) it was 37%; in [23] (setting [27]), 92%; in [11] (setting [27]), 100%. The remaining binding at 0.3 µM in test [12] (setting [27]) is 74%; in test [15] (setting [27]), 100%; in test [16] (setting [27]), 82%.
